The record followed here is ChEMBL document CHEMBL5329194, “Design, Synthesis, and Evaluation of 18F-Labeling CYP1B1 PET Tracer Based on 2-Phenylquinazolin” (Bioorg Med Chem Lett, 2023).

Data set [1] has as its target T1, Cytochrome P450 1B1 (Homo sapiens, UniProt Q16678).
T1 sequence (Q16678 whole entry): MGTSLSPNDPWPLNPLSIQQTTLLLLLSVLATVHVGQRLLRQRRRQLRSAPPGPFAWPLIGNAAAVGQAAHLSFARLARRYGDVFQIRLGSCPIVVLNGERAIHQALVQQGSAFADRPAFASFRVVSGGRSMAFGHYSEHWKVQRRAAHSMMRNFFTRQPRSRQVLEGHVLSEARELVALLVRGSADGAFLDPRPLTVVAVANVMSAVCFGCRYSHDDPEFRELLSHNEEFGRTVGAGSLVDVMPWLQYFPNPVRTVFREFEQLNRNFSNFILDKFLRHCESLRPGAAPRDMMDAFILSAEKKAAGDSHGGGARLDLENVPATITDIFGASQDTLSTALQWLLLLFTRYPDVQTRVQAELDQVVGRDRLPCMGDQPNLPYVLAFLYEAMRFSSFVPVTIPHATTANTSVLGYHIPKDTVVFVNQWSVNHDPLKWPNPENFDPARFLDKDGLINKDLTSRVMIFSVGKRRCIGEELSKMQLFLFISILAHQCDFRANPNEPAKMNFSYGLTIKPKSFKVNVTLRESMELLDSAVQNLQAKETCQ
Nature of the data set: Inhibition of CYP1B1 (unknown origin) by EROD assay. Format: ADME.

The target of data set [2] is T2, Cytochrome P450 1A1 (Homo sapiens, UniProt P04798).
T2 sequence (P04798 whole entry): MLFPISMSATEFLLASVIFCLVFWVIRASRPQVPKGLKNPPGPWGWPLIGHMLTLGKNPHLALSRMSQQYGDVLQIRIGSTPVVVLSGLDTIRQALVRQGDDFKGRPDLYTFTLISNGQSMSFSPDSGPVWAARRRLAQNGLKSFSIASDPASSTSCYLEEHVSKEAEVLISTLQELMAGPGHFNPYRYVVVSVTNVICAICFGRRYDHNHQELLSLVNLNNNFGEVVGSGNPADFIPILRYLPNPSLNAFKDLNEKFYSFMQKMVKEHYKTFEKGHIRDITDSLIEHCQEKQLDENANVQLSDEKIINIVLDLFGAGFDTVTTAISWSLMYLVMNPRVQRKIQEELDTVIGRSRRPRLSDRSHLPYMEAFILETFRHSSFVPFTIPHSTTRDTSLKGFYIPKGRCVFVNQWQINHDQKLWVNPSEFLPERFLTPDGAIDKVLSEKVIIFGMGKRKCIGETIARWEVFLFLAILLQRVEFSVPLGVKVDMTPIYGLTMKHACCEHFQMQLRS
Nature of the data set: Inhibition of CYP1A1 (unknown origin). Format: ADME.

In data set [3] the target is T3, Cytochrome P450 1A2 (Homo sapiens, UniProt P05177).
T3 sequence (P05177 whole entry): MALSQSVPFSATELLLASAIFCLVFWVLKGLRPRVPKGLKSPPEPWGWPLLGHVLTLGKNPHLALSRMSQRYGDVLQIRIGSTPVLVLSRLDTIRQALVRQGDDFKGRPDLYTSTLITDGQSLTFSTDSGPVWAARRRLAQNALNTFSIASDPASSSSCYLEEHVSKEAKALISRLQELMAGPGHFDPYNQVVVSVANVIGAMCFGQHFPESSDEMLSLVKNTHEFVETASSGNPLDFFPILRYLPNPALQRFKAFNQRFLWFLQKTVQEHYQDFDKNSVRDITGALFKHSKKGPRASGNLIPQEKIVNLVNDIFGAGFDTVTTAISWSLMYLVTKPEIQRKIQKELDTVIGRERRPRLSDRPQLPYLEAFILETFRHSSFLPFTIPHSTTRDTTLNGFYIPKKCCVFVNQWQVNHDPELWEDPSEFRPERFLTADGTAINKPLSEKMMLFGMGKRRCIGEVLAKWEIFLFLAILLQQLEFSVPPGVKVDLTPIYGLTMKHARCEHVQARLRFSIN
Nature of the data set: Inhibition of CYP1A2 (unknown origin). Format: ADME.

The test system of data set [4] is CYP1A1 versus CYP1B1. Kind of data set: Selectivity ratio of IC50 for inhibition of CYP1A1 (unknown origin) to IC50 for inhibition of CYP1B1 (unknown origin). The class given is ADME. The following applies: human; read-out: Ratio IC50.
Data set [5] concerns CYP1A2 versus CYP1B1. Kind of data set: Selectivity ratio of IC50 for inhibition of CYP1A2 (unknown origin) to IC50 for inhibition of CYP1B1 (unknown origin). Format: ADME. The conditions noted are these: human; read-out: Ratio IC50.
A short description of data set [6]: Drug uptake in human MCF7 cells measured after 30 mins. The class given is ADME, cell-based. The conditions noted are these: mcf7, 0.5 h.
Data set [7] is described as follows: Drug uptake in human HCT-15 cells measured after 30 mins. The class given is ADME, cell-based. The following applies: hct-15, 0.5 h.

A value given as a limit tells only on which side of the number the result lay.

For the compound `FCCOCCOCCOc1nc(-c2ccc(Br)cc2)nc2ccccc12`, the half-maximal inhibitory concentration (IC50) (in general, the concentration needed to halve the response being measured) in data set [1] was 48.2 nM; in data set [2], greater than 1000 nM; in data set [3], greater than 1000 nM. The selectivity ratio in data set [4] and in data set [5] was greater than 20.7 throughout. The Drug uptake in data set [6] was found to be 21.56%; in data set [7], 25.61%.
